Test results taken from patent US20220251141A1, “IMMUNOMODULATORS” (Bristol-Myers Squibb Company, priority 2019, published 2022).
Bridge positions count the residues as written; N and C are the ends. Square brackets hold non-standard residues; d marks the D form. Peptide text beside a SMILES is read from it. * marks the point of attachment. Trp(1-CH2COOH) = N[C@@H](Cc1cn(CC(=O)O)c2ccccc12)C(=O)O; Trp(1-Me) = Cn1cc(C[C@H](N)C(=O)O)c2ccccc21; Phe(4-F) = N[C@@H](Cc1ccc(F)cc1)C(=O)O; Hyp = O=C(O)[C@@H]1C[C@@H](O)CN1; NMeNle = CCCC[C@H](NC)C(=O)O; Pen = CC(C)(S)[C@H](N)C(=O)O; Pip = O=C(O)[C@@H]1CCCCN1; Dab = NCC[C@H](N)C(=O)O; Dap = NC[C@H](N)C(=O)O; Piv = CC(C)(C)C(=O)*

Target: T1, PD-1/PD-L1 (Homo sapiens, UniProt Q9NZQ7)
T1 construct: TVMV protease site linker (C); made in house; host or cells: HEK293T cells
Assay: PD-1/PD-L1 Homogenous Time-Resolved Fluorescence (HTRF) binding assay
Conditions: PD-L1-His 10 nM final, PD-1-Ig 20 nM final; inhibitors pre-incubated with PD-L1-His for 15 m
Outline: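 Compounds pre-incubated 15 min with human PD-L1(18-239)-His (10 nM final), then PD-1(25-167)-Ig (20 nM final) added for 15 min, in dPBS with 0.1% BSA and 0.05% Tween-20. Eu-cryptate anti-Ig (1 nM) and APC anti-His (20 nM) added, 30 min equilibration, 665/620 nm ratio read; IC50 reported.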

| Structure (SMILES) | IC50 |
| --- | --- |
| CCCC[C@H]1C(=O)N(C)[C@@H](CCCC)C(=O)N[C@@H](CCC(N)=O)C(=O)N[C@H](C(N)=O)CSCC(=O)N[C@@H](Cc2ccc(F)cc2)C(=O)N2CCCC[C@H]2C(=O)N[C@@H](CC(N)=O)C(=O)N2CCC[C@H]2C(=O)N[C@@H](CNC(=O)C(C)(C)C)C(=O)N[C@@H](CC(C)C)C(=O)N2C[C@H](O)C[C@H]2C(=O)N[C@@H](Cc2c[nH]c3ccccc23)C(=O)N[C@@H](CCN)C(=O)N[C@@H](Cc2cn(C)c3ccccc23)C(=O)N1C [Example 20150] ({CH2CO}-[Phe(4-F)][Pip]NP[Dap](Piv)L[Hyp]W[Dab][Trp(1-Me)][NMeNle][NMeNle]QC-NH2; thioether N-14) | 12.5 nM |
| CCCC[C@H]1C(=O)N(C)[C@@H](CCCC)C(=O)N[C@@H](CCC(=O)O)C(=O)N[C@H](C(N)=O)CSCC(=O)N[C@@H](Cc2ccc(F)cc2)C(=O)N2CCCC[C@H]2C(=O)N[C@@H](CC(=O)O)C(=O)N2CCC[C@H]2C(=O)N[C@@H](CNC(=O)C(C)(C)C)C(=O)N[C@@H](CC(C)C)C(=O)N2C[C@H](O)C[C@H]2C(=O)N[C@@H](Cc2c[nH]c3ccccc23)C(=O)N[C@@H](CCN)C(=O)N[C@@H](Cc2cn(CC(=O)O)c3ccccc23)C(=O)N1C [Example 20170] ({CH2CO}-[Phe(4-F)][Pip]DP[Dap](Piv)L[Hyp]W[Dab][Trp(1-CH2COOH)][NMeNle][NMeNle]EC-NH2; thioether N-14) | 14 nM |
| CCCC[C@H]1C(=O)N(C)[C@@H](CCCC)C(=O)N[C@@H](CC(C)C)C(=O)N[C@H](C(N)=O)C(C)(C)SCC(=O)N[C@@H](Cc2ccc(F)cc2)C(=O)N2CCCC[C@H]2C(=O)N[C@@H](CC(=O)O)C(=O)N2CCC[C@H]2C(=O)N[C@@H](CNC(=O)C(C)(C)C)C(=O)N[C@@H](CC(C)C)C(=O)N2C[C@H](O)C[C@H]2C(=O)N[C@@H](Cc2c[nH]c3ccccc23)C(=O)N[C@@H](CCNC(=O)C(C)(C)C)C(=O)N[C@@H](Cc2cn(CC(=O)O)c3ccccc23)C(=O)N1C [Example 20180] ({CH2CO}-[Phe(4-F)][Pip]DP[Dap](Piv)L[Hyp]W[Dab](Piv)[Trp(1-CH2COOH)][NMeNle][NMeNle]L[Pen]-NH2; thioether N-14) | 14.1 nM |
| CCCC[C@H]1C(=O)N(C)[C@@H](CCCC)C(=O)N[C@@H](CC(C)C)C(=O)N[C@H](C(N)=O)CSCC(=O)N[C@@H](Cc2ccc(F)cc2)C(=O)N2CCCC[C@H]2C(=O)N[C@@H](CC(=O)O)C(=O)N2CCC[C@H]2C(=O)N[C@@H](CNC(=O)C(C)(C)C)C(=O)N[C@@H](CC(C)C)C(=O)N2C[C@H](O)C[C@H]2C(=O)N[C@@H](Cc2c[nH]c3ccccc23)C(=O)N[C@@H](CCN)C(=O)N[C@@H](Cc2cn(C)c3ccccc23)C(=O)N1C [Example 20190] ({CH2CO}-[Phe(4-F)][Pip]DP[Dap](Piv)L[Hyp]W[Dab][Trp(1-Me)][NMeNle][NMeNle]LC-NH2; thioether N-14) | 14.2 nM |
| CCCC[C@H]1C(=O)N(C)[C@@H](CCCC)C(=O)N[C@@H](CC(C)C)C(=O)N[C@H](C(N)=O)CSCC(=O)N[C@@H](Cc2ccc(F)cc2)C(=O)N2CCCC[C@H]2C(=O)N[C@@H](CC(N)=O)C(=O)N2CCC[C@H]2C(=O)N[C@@H](CNC(=O)C(C)(C)C)C(=O)N[C@@H](CC(C)C)C(=O)N2C[C@H](O)C[C@H]2C(=O)N[C@@H](Cc2c[nH]c3ccccc23)C(=O)N[C@@H](CCNC(=O)C(C)(C)C)C(=O)N[C@@H](Cc2cn(CC(=O)O)c3ccccc23)C(=O)N1C [Example 20200] ({CH2CO}-[Phe(4-F)][Pip]NP[Dap](Piv)L[Hyp]W[Dab](Piv)[Trp(1-CH2COOH)][NMeNle][NMeNle]LC-NH2; thioether N-14) | 15.8 nM |
| CCCC[C@H]1C(=O)N(C)[C@@H](CCCC)C(=O)N[C@@H](CC(C)C)C(=O)N[C@H](C(N)=O)C(C)(C)SCC(=O)N[C@@H](Cc2ccc(F)cc2)C(=O)N2CCCC[C@H]2C(=O)N[C@@H](CC(=O)O)C(=O)N2CCC[C@H]2C(=O)N[C@@H](CNC(=O)C(C)(C)C)C(=O)N[C@@H](CC(C)C)C(=O)N2C[C@H](O)C[C@H]2C(=O)N[C@@H](Cc2c[nH]c3ccccc23)C(=O)N[C@@H](CCN)C(=O)N[C@@H](Cc2cn(C)c3ccccc23)C(=O)N1C [Example 20210] ({CH2CO}-[Phe(4-F)][Pip]DP[Dap](Piv)L[Hyp]W[Dab][Trp(1-Me)][NMeNle][NMeNle]L[Pen]-NH2; thioether N-14) | 16.4 nM |
| CCCC[C@H]1C(=O)N(C)[C@@H](CCCC)C(=O)N[C@@H](CCC(N)=O)C(=O)N[C@H](C(N)=O)C(C)SCC(=O)N[C@@H](Cc2ccc(F)cc2)C(=O)N2CCCC[C@H]2C(=O)N[C@@H](CC(N)=O)C(=O)N2CCC[C@H]2C(=O)N[C@@H](CNC(=O)C(C)(C)C)C(=O)N[C@@H](C(C)C)C(=O)N2C[C@H](O)C[C@H]2C(=O)N[C@@H](Cc2c[nH]c3ccccc23)C(=O)N[C@@H](CCN)C(=O)N[C@@H](Cc2cn(C)c3ccccc23)C(=O)N1C (some centres unmarked) [Example 20220] | 16.6 nM |
| CCCC[C@H]1C(=O)N(C)[C@@H](CCCC)C(=O)N[C@@H](CCC(=O)O)C(=O)N[C@H](C(N)=O)CSCC(=O)N[C@@H](Cc2ccc(F)cc2)C(=O)N2CCCC[C@H]2C(=O)N[C@@H](CC(N)=O)C(=O)N2CCC[C@H]2C(=O)N[C@@H](CNC(=O)C(C)(C)C)C(=O)N[C@@H](CC(C)C)C(=O)N2C[C@H](O)C[C@H]2C(=O)N[C@@H](Cc2c[nH]c3ccccc23)C(=O)N[C@@H](CCNC(=O)C(C)(C)C)C(=O)N[C@@H](Cc2cn(C)c3ccccc23)C(=O)N1C [Example 20230] ({CH2CO}-[Phe(4-F)][Pip]NP[Dap](Piv)L[Hyp]W[Dab](Piv)[Trp(1-Me)][NMeNle][NMeNle]EC-NH2; thioether N-14) | 16.6 nM |
| CCCC[C@H]1C(=O)N(C)[C@@H](CCCC)C(=O)N[C@@H](CCC(N)=O)C(=O)N[C@H](C(N)=O)CSCC(=O)N[C@@H](Cc2ccc(F)cc2)C(=O)N2CCCC[C@H]2C(=O)N[C@@H](CC(=O)O)C(=O)N2CCC[C@H]2C(=O)N[C@@H](CNC(=O)C(C)(C)C)C(=O)N[C@@H](CCCCN)C(=O)N2C[C@H](O)C[C@H]2C(=O)N[C@@H](Cc2c[nH]c3ccccc23)C(=O)N[C@@H](CCN)C(=O)N[C@@H](Cc2cn(C)c3ccccc23)C(=O)N1C [Example 20240] ({CH2CO}-[Phe(4-F)][Pip]DP[Dap](Piv)K[Hyp]W[Dab][Trp(1-Me)][NMeNle][NMeNle]QC-NH2; thioether N-14) | 18.4 nM |
| CCCC[C@H]1C(=O)N(C)[C@@H](CCCC)C(=O)N[C@@H](CC(C)C)C(=O)N[C@H](C(N)=O)CSCC(=O)N[C@@H](Cc2ccc(F)cc2)C(=O)N2CCCC[C@H]2C(=O)N[C@@H](CC(=O)O)C(=O)N2CCC[C@H]2C(=O)N[C@@H](CNC(=O)C(C)(C)C)C(=O)N[C@@H](CC(C)C)C(=O)N2C[C@H](O)C[C@H]2C(=O)N[C@@H](Cc2c[nH]c3ccccc23)C(=O)N[C@@H](CCNC(=O)C(C)(C)C)C(=O)N[C@@H](Cc2cn(CC(=O)O)c3ccccc23)C(=O)N1C [Example 20250] ({CH2CO}-[Phe(4-F)][Pip]DP[Dap](Piv)L[Hyp]W[Dab](Piv)[Trp(1-CH2COOH)][NMeNle][NMeNle]LC-NH2; thioether N-14) | 22.9 nM |
| CCCC[C@H]1C(=O)N(C)[C@@H](CCCC)C(=O)N[C@@H](CC(C)C)C(=O)N[C@H](C(N)=O)CSCC(=O)N[C@@H](Cc2ccc(F)cc2)C(=O)N2CCCC[C@H]2C(=O)N[C@@H](CC(N)=O)C(=O)N2CCC[C@H]2C(=O)N[C@@H](CNC(=O)C(C)(C)C)C(=O)N[C@@H](CC(C)C)C(=O)N2C[C@H](O)C[C@H]2C(=O)N[C@@H](Cc2c[nH]c3ccccc23)C(=O)N[C@@H](CCN)C(=O)N[C@@H](Cc2cn(C)c3ccccc23)C(=O)N1C [Example 20260] ({CH2CO}-[Phe(4-F)][Pip]NP[Dap](Piv)L[Hyp]W[Dab][Trp(1-Me)][NMeNle][NMeNle]LC-NH2; thioether N-14) | 28.9 nM |
| CCCC[C@H]1C(=O)N(C)[C@@H](CCCC)C(=O)N[C@@H](CCC(=O)O)C(=O)N[C@H](C(N)=O)CSCC(=O)N[C@@H](Cc2ccc(F)cc2)C(=O)N2CCCC[C@H]2C(=O)N[C@@H](CC(N)=O)C(=O)N2CCC[C@H]2C(=O)N[C@@H](CNC(=O)C(C)(C)C)C(=O)N[C@@H](CC(C)C)C(=O)N2C[C@H](O)C[C@H]2C(=O)N[C@@H](Cc2c[nH]c3ccccc23)C(=O)N[C@@H](CCN)C(=O)N[C@@H](Cc2cn(C)c3ccccc23)C(=O)N1C [Example 20270] ({CH2CO}-[Phe(4-F)][Pip]NP[Dap](Piv)L[Hyp]W[Dab][Trp(1-Me)][NMeNle][NMeNle]EC-NH2; thioether N-14) | 43.2 nM |
| CCCC[C@H]1C(=O)N(C)[C@@H](CCCC)C(=O)N[C@@H](CC(C)C)C(=O)N[C@H](C(N)=O)CSCC(=O)N[C@@H](Cc2ccc(F)cc2)C(=O)N2CCCC[C@H]2C(=O)N[C@@H](CC(N)=O)C(=O)N2CCC[C@H]2C(=O)N[C@@H](CNC(=O)C(C)(C)C)C(=O)N[C@@H](CC(C)C)C(=O)N2C[C@H](O)C[C@H]2C(=O)N[C@@H](Cc2c[nH]c3ccccc23)C(=O)N[C@@H](CCNC(=O)C(C)(C)C)C(=O)N[C@@H](Cc2cn(C)c3ccccc23)C(=O)N1C [Example 20280] ({CH2CO}-[Phe(4-F)][Pip]NP[Dap](Piv)L[Hyp]W[Dab](Piv)[Trp(1-Me)][NMeNle][NMeNle]LC-NH2; thioether N-14) | 50.3 nM |
| CCCC[C@H]1C(=O)N(C)[C@@H](CCCC)C(=O)N[C@@H](CCC(=O)O)C(=O)N[C@H](C(N)=O)CSCC(=O)N[C@@H](Cc2ccc(F)cc2)C(=O)N2CCCC[C@H]2C(=O)N[C@@H](CC(=O)O)C(=O)N2CCC[C@H]2C(=O)N[C@@H](CNC(=O)C(C)(C)C)C(=O)N[C@@H](CC(C)C)C(=O)N2C[C@H](O)C[C@H]2C(=O)N[C@@H](Cc2c[nH]c3ccccc23)C(=O)N[C@@H](CCNC(=O)C(C)(C)C)C(=O)N[C@@H](Cc2cn(C)c3ccccc23)C(=O)N1C [Example 20290] ({CH2CO}-[Phe(4-F)][Pip]DP[Dap](Piv)L[Hyp]W[Dab](Piv)[Trp(1-Me)][NMeNle][NMeNle]EC-NH2; thioether N-14) | 70.1 nM |
